Data reported in US20130217085A1, “METHODS FOR IMPROVING FERMENTATION YIELD OF POLYUNSATURATED FATTY ACIDS” (NANJING UNIVERSITY OF TECHNOLOGY, priority 2010, published 2013).

Tested on: Schizochytrium limacinum HX-308
Test: Shake-flask fermentation of Schizochytrium limacinum HX-308 with exogenous compatible solute added to the fermentation medium (fatty acid composition, DHA yield, biomass)
Assay type: cell-based
Settings: for increase of DHA yield: versus no addition
Excerpt: The detection method of the following Examples is the same as that in the application titled “Schizochytrium limacinum and method of production of DHA oil using the same” (Application No. 200910033869.5) The strain is Schizochytrium limacinum HX-308 with deposit number CCTCC No. M209059. Seed medium: D-glucose 40 g/L, yeast extract 2 g/L, sodium glutamate 10 g/L, MgCl2 3 g/L, CaCl2·2H2O 1 g/L, KH2PO4 4 g/L, KCl 2 g/L, NaCl 15 g/L, MgSO4·7H2O 5 g/L, FeCl3 0.1 g/L. (See “A Schizochytrium limacinum and method of production of DHA oil using the same” (Application No. 200910033869.5)). Fermentation medium: D-glucose 40 g/L, yeast extract 2 g/L, sodium glutamate 10 g/L, MgCl2 3 g/L, (NH4)2SO4 6 g/L, KH2PO4 4 g/L, KCl 2 g/L, NaCl 15 g/L, MgSO4·7H2O 5 g/L, FeCl3 0.1 g/L. (See “A Schizochytrium limacinum and method of production of DHA oil using the same” (Application No. 200910033869.5)). Cultural method: strain was inoculated into seed medium with inoculation amount of 5% (v/v), cultured in a 500 mL shake flask for 24 h to log phase under 170 r at 25° C., and inoculated into the fermentation medium with addition of a certain amount of glycine betaine (such as 10 mmol/L, 40 mmol/L, 70 mmol/L, 100 mmol/L) in inoculation amount of 9% (v/v) for culturing; fermentation ceased when glucose reached an amount of 0 g/L. The results are shown in Table 1. The strain is Schizochytrium limacinum HX-308 with deposit number CCTCC No. M209059. Seed medium: D-glucose 40 g/L, yeast extract 2 g/L, sodium glutamate 10 g/L, MgCl2 3 g/L, CaCl2·2H2O 1 g/L, KH2PO4 4 g/L, KCl 2 g/L, NaCl 15 g/L, MgSO4·7H2O 5 g/L, FeCl3 0.1 g/L. Fermentation medium: D-glucose 40 g/L, yeast extract 2 g/L, sodium glutamate 10 g/L, MgCl2 3 g/L, (NH4)2SO4 6 g/L, KH2PO4 4 g/L, KCl 2 g/L, NaCl 15 g/L, MgSO4·7H2O 5 g/L, FeCl3 0.1 g/L. Cultural method: the strain was inoculated into seed medium with inoculation amount of 5% (v/v), cultured in a 500 mL shake flask for 24 h to log phase under 170 r at 25° C., and inoculated into the fermentation medium with addition of a certain amount of trehalose (such as 10 mmol/L, 40 mmol/L, 80 mmol/L) in inoculation amount of 9% (v/v); fermentation ceased when glucose reached an amount of 0 g/L. The results are shown in Table 2.

[1] = exogenous glycine betaine 10 mM
[2] = exogenous glycine betaine 40 mM
[3] = exogenous glycine betaine 70 mM
[4] = exogenous glycine betaine 100 mM
[5] = exogenous glycine betaine 200 mM

OC[C@H]1O[C@H](O[C@H]2O[C@H](CO)[C@@H](O)[C@H](O)[C@H]2O)[C@H](O)[C@@H](O)[C@@H]1O [trehalose]
increase of DHA yield (appropriate amount of trehalose): 92% | DHA yield (appropriate amount of trehalose, increased from 3.9 g/L): 7.5 g/L | yield of total fatty acids (appropriate amount of trehalose, increased from 8.8 g/L): 16.7 g/L | ratio of DHA in total biomass (appropriate amount of trehalose, increased from 57): 99 mg/g | Biomass (appropriate amount of trehalose, increased from 60 g/L): 76 g/L | ARA (% total fatty acids) (exogenous trehalose 10 mM): 0.6 % total fatty acids | Biomass (exogenous trehalose 10 mM): 70 g/L | C14:0 (% total fatty acids) (exogenous trehalose 10 mM): 9.5 % total fatty acids | C16:0 (% total fatty acids) (exogenous trehalose 10 mM): 22.3 % total fatty acids | DHA (% total fatty acids) (exogenous trehalose 10 mM): 44.8 % total fatty acids | DHA (mg/g biomass) (exogenous trehalose 10 mM): 57.1 mg/g biomass | DHA yield (exogenous trehalose 10 mM): 4 g/L | DPA (% total fatty acids) (exogenous trehalose 10 mM): 12.3 % total fatty acids | EPA (% total fatty acids) (exogenous trehalose 10 mM): 1.6 % total fatty acids | Others (% total fatty acids) (exogenous trehalose 10 mM): 8.1 % total fatty acids | Squalene (% total fatty acids) (exogenous trehalose 10 mM): 0.8 % total fatty acids | Total fatty acid yield (exogenous trehalose 10 mM): 8.9 g/L | ARA (% total fatty acids) (exogenous trehalose 40 mM): 1.9 % total fatty acids | Biomass (exogenous trehalose 40 mM): 74 g/L | C14:0 (% total fatty acids) (exogenous trehalose 40 mM): 9.6 % total fatty acids | C16:0 (% total fatty acids) (exogenous trehalose 40 mM): 21.3 % total fatty acids | DHA (% total fatty acids) (exogenous trehalose 40 mM): 47.4 % total fatty acids | DHA (mg/g biomass) (exogenous trehalose 40 mM): 56.6 mg/g biomass | DHA yield (exogenous trehalose 40 mM): 4.2 g/L | DPA (% total fatty acids) (exogenous trehalose 40 mM): 12.6 % total fatty acids | EPA (% total fatty acids) (exogenous trehalose 40 mM): 1.8 % total fatty acids | Others (% total fatty acids) (exogenous trehalose 40 mM): 4.5 % total fatty acids | Squalene (% total fatty acids) (exogenous trehalose 40 mM): 0.9 % total fatty acids | Total fatty acid yield (exogenous trehalose 40 mM): 8.9 g/L | ARA (% total fatty acids) (exogenous trehalose 80 mM): 1.2 % total fatty acids | Biomass (exogenous trehalose 80 mM): 76 g/L | C14:0 (% total fatty acids) (exogenous trehalose 80 mM): 10.7 % total fatty acids | C16:0 (% total fatty acids) (exogenous trehalose 80 mM): 23.2 % total fatty acids | DHA (% total fatty acids) (exogenous trehalose 80 mM): 45 % total fatty acids | DHA (mg/g biomass) (exogenous trehalose 80 mM): 99.3 mg/g biomass | DHA yield (exogenous trehalose 80 mM): 7.5 g/L | DPA (% total fatty acids) (exogenous trehalose 80 mM): 12.2 % total fatty acids | EPA (% total fatty acids) (exogenous trehalose 80 mM): 1.3 % total fatty acids | Others (% total fatty acids) (exogenous trehalose 80 mM): 5.5 % total fatty acids | Squalene (% total fatty acids) (exogenous trehalose 80 mM): 0.9 % total fatty acids | Total fatty acid yield (exogenous trehalose 80 mM): 16.7 g/L | ARA (% total fatty acids) (exogenous trehalose 160 mM): 1.0 % total fatty acids | Biomass (exogenous trehalose 160 mM): 78 g/L | C14:0 (% total fatty acids) (exogenous trehalose 160 mM): 11.0 % total fatty acids | C16:0 (% total fatty acids) (exogenous trehalose 160 mM): 22.5 % total fatty acids | DHA (% total fatty acids) (exogenous trehalose 160 mM): 43.2 % total fatty acids | DHA (mg/g biomass) (exogenous trehalose 160 mM): 89.7 mg/g biomass | DHA yield (exogenous trehalose 160 mM): 7 g/L | DPA (% total fatty acids) (exogenous trehalose 160 mM): 12.1 % total fatty acids | EPA (% total fatty acids) (exogenous trehalose 160 mM): 1.4 % total fatty acids | Others (% total fatty acids) (exogenous trehalose 160 mM): 8.3 % total fatty acids | Squalene (% total fatty acids) (exogenous trehalose 160 mM): 0.5 % total fatty acids | Total fatty acid yield (exogenous trehalose 160 mM): 16.2 g/L | Biomass (exogenous trehalose 200 mM): 81 g/L | C14:0 (% total fatty acids) (exogenous trehalose 200 mM): 11.7 % total fatty acids | C16:0 (% total fatty acids) (exogenous trehalose 200 mM): 21.5 % total fatty acids | DHA (% total fatty acids) (exogenous trehalose 200 mM): 41.7 % total fatty acids | DHA (mg/g biomass) (exogenous trehalose 200 mM): 78 mg/g biomass | DHA yield (exogenous trehalose 200 mM): 6.3 g/L | DPA (% total fatty acids) (exogenous trehalose 200 mM): 11.5 % total fatty acids | EPA (% total fatty acids) (exogenous trehalose 200 mM): 1.4 % total fatty acids | Others (% total fatty acids) (exogenous trehalose 200 mM): 12.2 % total fatty acids | Total fatty acid yield (exogenous trehalose 200 mM): 15.1 g/L | ARA (% total fatty acids) (exogenous trehalose 280 mM): 1.0 % total fatty acids | Biomass (exogenous trehalose 280 mM): 76 g/L | C14:0 (% total fatty acids) (exogenous trehalose 280 mM): 11.1 % total fatty acids | C16:0 (% total fatty acids) (exogenous trehalose 280 mM): 22.7 % total fatty acids | DHA (% total fatty acids) (exogenous trehalose 280 mM): 39.1 % total fatty acids | DHA (mg/g biomass) (exogenous trehalose 280 mM): 29 mg/g biomass | DHA yield (exogenous trehalose 280 mM): 2.2 g/L | DPA (% total fatty acids) (exogenous trehalose 280 mM): 10.8 % total fatty acids | EPA (% total fatty acids) (exogenous trehalose 280 mM): 7.7 % total fatty acids | Others (% total fatty acids) (exogenous trehalose 280 mM): 7.6 % total fatty acids | Total fatty acid yield (exogenous trehalose 280 mM): 5.6 g/L

C[N+](C)(C)CC(=O)[O-] [glycine betaine]
mass percentage of squalene (after treatment with exogenous glycine betaine, concentration not given, increased from 0.8%): 1.7% | DHA yield (after treatment with exogenous glycine betaine, concentration not given, increased from 3.9 g/L): 5.0 g/L | Total fatty acid yield (after treatment with exogenous glycine betaine, concentration not given, increased from 8.8 g/L): 10 g/L | mass percentage of DPA in total fatty acids (after treatment with exogenous glycine betaine, concentration not given, increased from 11.9%): 16.2% | mass percentage of DHA in total fatty acids (after treatment with exogenous glycine betaine, concentration not given, increased from 44.1%): 49.8% | ratio of DHA in the total biomass (after treatment with exogenous glycine betaine, concentration not given, increased from 57): 72 mg/g | mass percentage of saturated fatty acid C14: 0 in total fatty acid (after treatment with exogenous glycine betaine, concentration not given, reduced from 10.0%): 5.1% | mass percentage of saturated fatty acid C16: 0 in total fatty acid (after treatment with exogenous glycine betaine, concentration not given, reduced from 24.4%): 20% | increase of DHA yield (after treatment with exogenous glycine betaine): 28% | ARA (% total fatty acids) [1]: 0.5 % total fatty acids | Biomass [1]: 69 g/L | C14:0 (% total fatty acids) [1]: 7.1 % total fatty acids | C16:0 (% total fatty acids) [1]: 21.5 % total fatty acids | DHA (% total fatty acids) [1]: 47.8 % total fatty acids | DHA (mg/g biomass) [1]: 60.5 mg/g biomass | DHA yield [1]: 4.2 g/L | DPA (% total fatty acids) [1]: 14.5 % total fatty acids | EPA (% total fatty acids) [1]: 1.2 % total fatty acids | Others (% total fatty acids) [1]: 6.2 % total fatty acids | Squalene (% total fatty acids) [1]: 1.2 % total fatty acids | Total fatty acid yield [1]: 8.8 g/L | ARA (% total fatty acids) [2]: 0.6 % total fatty acids | Biomass [2]: 69 g/L | C14:0 (% total fatty acids) [2]: 5.1 % total fatty acids | C16:0 (% total fatty acids) [2]: 19.9 % total fatty acids | DHA (% total fatty acids) [2]: 49.8 % total fatty acids | DHA (mg/g biomass) [2]: 72.2 mg/g biomass | DHA yield [2]: 5 g/L | DPA (% total fatty acids) [2]: 16.2 % total fatty acids | EPA (% total fatty acids) [2]: 1.6 % total fatty acids | Others (% total fatty acids) [2]: 5.1 % total fatty acids | Squalene (% total fatty acids) [2]: 1.7 % total fatty acids | Total fatty acid yield [2]: 10 g/L | ARA (% total fatty acids) [3]: 0.8 % total fatty acids | Biomass [3]: 70 g/L | C14:0 (% total fatty acids) [3]: 5.1 % total fatty acids | C16:0 (% total fatty acids) [3]: 19.5 % total fatty acids | DHA (% total fatty acids) [3]: 49.0 % total fatty acids | DHA (mg/g biomass) [3]: 67.1 mg/g biomass | DHA yield [3]: 4.7 g/L | DPA (% total fatty acids) [3]: 16.0 % total fatty acids | EPA (% total fatty acids) [3]: 2.0 % total fatty acids | Others (% total fatty acids) [3]: 5.6 % total fatty acids | Squalene (% total fatty acids) [3]: 2.0 % total fatty acids | Total fatty acid yield [3]: 9.6 g/L | ARA (% total fatty acids) [4]: 0.9 % total fatty acids | Biomass [4]: 70 g/L | C14:0 (% total fatty acids) [4]: 5.2 % total fatty acids | C16:0 (% total fatty acids) [4]: 19.0 % total fatty acids | DHA (% total fatty acids) [4]: 48.1 % total fatty acids | DHA (mg/g biomass) [4]: 61.14 mg/g biomass | DHA yield [4]: 4.3 g/L | DPA (% total fatty acids) [4]: 15.8 % total fatty acids | EPA (% total fatty acids) [4]: 2.6 % total fatty acids | Others (% total fatty acids) [4]: 6.1 % total fatty acids | Squalene (% total fatty acids) [4]: 2.3 % total fatty acids | Total fatty acid yield [4]: 8.9 g/L | Biomass [5]: 85 g/L | C14:0 (% total fatty acids) [5]: 2.3 % total fatty acids | C16:0 (% total fatty acids) [5]: 10.9 % total fatty acids | DHA (% total fatty acids) [5]: 34.9 % total fatty acids | DHA (mg/g biomass) [5]: 27 mg/g biomass | DHA yield [5]: 2.3 g/L | DPA (% total fatty acids) [5]: 10.5 % total fatty acids | EPA (% total fatty acids) [5]: 8.6 % total fatty acids | Others (% total fatty acids) [5]: 30.9 % total fatty acids | Squalene (% total fatty acids) [5]: 1.9 % total fatty acids | Total fatty acid yield [5]: 6.6 g/L
